Laboratory results published in patent US10174016B2 (BAYER AKTIENGESELLSCHAFT, priority 2014, dated 2019).
Like-named read-outs stand apart in the source and are kept apart here.

How the values were obtained:
[1] = molecular target: human P2X3 receptor (Homo sapiens (Human), UniProt P56373); test: Intracellular calcium measurement (FLIPR, Fluo-4) of antagonist activity at human P2X3 receptors; assay type: cell-based; conditions: read-out: hP2X3 IC50
Summary of the method: (§1)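 Antagonism quantified from peak calcium fluorescence (Fluo-4, FLIPR, 90 sec read) evoked by EC80 α,β-Me-ATP, after a 30 min, 37° C. compound pretreatment in 1% DMSO. Human P2X3- or P2X2/3-expressing cells used; triplicate means fitted for IC50, percent maximal inhibition and Hill coefficient.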

[2] = molecular target: human P2X2/3 receptor (Homo sapiens (Human), UniProt P56373+Q9UBL9); test: Intracellular calcium measurement (FLIPR, Fluo-4) of antagonist activity at human P2X2/3 receptors; assay type: cell-based; conditions: human P2X2/3, FLIPR calcium assay, agonist α,β-Me-ATP; read-out: hP2X2/3 IC50
Summary of the method: as §1

[3] = human P2X3, FLIPR calcium assay, agonist α,β-Me-ATP

Sequence of human P2X3 receptor (P56373 whole entry): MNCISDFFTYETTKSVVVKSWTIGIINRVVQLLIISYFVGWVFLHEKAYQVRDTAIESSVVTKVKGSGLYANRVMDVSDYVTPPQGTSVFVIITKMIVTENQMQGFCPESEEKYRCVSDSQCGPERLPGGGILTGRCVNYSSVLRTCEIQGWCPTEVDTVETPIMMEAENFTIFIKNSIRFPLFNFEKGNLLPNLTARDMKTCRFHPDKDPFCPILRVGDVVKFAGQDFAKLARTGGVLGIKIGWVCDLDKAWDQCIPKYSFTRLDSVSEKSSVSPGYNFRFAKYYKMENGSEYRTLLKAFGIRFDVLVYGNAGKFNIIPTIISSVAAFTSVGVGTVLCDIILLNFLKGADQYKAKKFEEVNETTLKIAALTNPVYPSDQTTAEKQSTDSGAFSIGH
Sequence of human P2X2/3 receptor (P56373 whole entry): as above
Sequence of human P2X2/3 receptor (Q9UBL9 whole entry): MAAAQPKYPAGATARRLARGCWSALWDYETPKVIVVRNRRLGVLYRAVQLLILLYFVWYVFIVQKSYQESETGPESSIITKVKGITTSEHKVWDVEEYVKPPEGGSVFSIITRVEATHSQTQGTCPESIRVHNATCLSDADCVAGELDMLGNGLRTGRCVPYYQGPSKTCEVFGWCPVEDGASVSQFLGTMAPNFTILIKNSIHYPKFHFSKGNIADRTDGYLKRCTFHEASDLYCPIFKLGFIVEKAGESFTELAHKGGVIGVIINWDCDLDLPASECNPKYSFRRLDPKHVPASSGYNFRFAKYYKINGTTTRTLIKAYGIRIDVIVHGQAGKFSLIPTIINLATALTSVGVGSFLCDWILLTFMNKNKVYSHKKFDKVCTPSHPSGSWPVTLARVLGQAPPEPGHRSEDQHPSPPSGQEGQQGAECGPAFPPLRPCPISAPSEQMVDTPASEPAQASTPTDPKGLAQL

| Structure (SMILES) | IC50 [1, 3] | IC50 [2] | IC50 [1] |
| --- | --- | --- | --- |
| Cc1ccc([C@@H](C)NC(=O)c2cc(OC[C@@H]3CCCO3)cc(-c3ncc(C4CCC4)s3)c2)nn1 [Example 285, 3-(5-cyclobutyl-1,3-thiazol-2-yl)-N-[(1R)-1-(6-methylpyridazin-3-yl)ethyl]-5-[(2S)-tetrahydrofuran-2-ylmethoxy]benzamide] | 0.113 µM | 0.76 µM | – |
| C[C@@H](NC(=O)c1cc(OC[C@@H]2CCCO2)cc(-c2ncc(C3CCC3)s2)c1)c1cnc(C(F)(F)F)nc1 [Example 287, 3-(5-cyclobutyl-1,3-thiazol-2-yl)-5-[(2S)-tetrahydrofuran-2-ylmethoxy]-N-{(1R)-1-[2-(trifluoromethyl)pyrimidin-5-yl]ethyl}benzamide] | 0.035 µM | 0.275 µM | – |
| Cc1ccc([C@@H](C)NC(=O)c2cc(OC[C@@H]3CCCO3)cc(-c3ncc(C(C)C)s3)c2)nn1 [Example 288, N-[(1R)-1-(6-methylpyridazin-3-yl)ethyl]-3-[5-(propan-2-yl)-1,3-thiazol-2-yl]-5-[(2S)-tetrahydrofuran-2-ylmethoxy]benzamide] | 0.15 µM | 1.31 µM | – |
| CC(C)c1cnc(-c2cc(OC[C@@H]3CCCO3)cc(C(=O)N[C@H](C)c3cnc(C(F)(F)F)nc3)c2)s1 [Example 290, 3-[5-(propan-2-yl)-1,3-thiazol-2-yl]-5-[(2S)-tetrahydrofuran-2-ylmethoxy]-N-{(1R)-1-[2-(trifluoromethyl)pyrimidin-5-yl]ethyl}benzamide] | – | 0.368 µM | 0.031 µM |
| CC(C)c1cnc(-c2cc(OC[C@@H]3CCOC3)cc(C(=O)N[C@H](C)c3ccc(C(F)(F)F)nn3)c2)s1 [Example 293, 3-[5-(propan-2-yl)-1,3-thiazol-2-yl]-5-[(3R)-tetrahydrofuran-3-ylmethoxy]-N-{(1R)-1-[6-(trifluoromethyl)pyridazin-3-yl]ethyl}benzamide] | 0.063 µM | 1.16 µM | – |
| CC(C)c1cnc(-c2cc(O[C@@H]3CCOC3)cc(C(=O)N[C@H](C)c3ccc(C(F)(F)F)nn3)c2)s1 [Example 294, 3-[5-(propan-2-yl)-1,3-thiazol-2-yl]-5-[(3R)-tetrahydrofuran-3-yloxy]-N-{(1R)-1-[6-(trifluoromethyl)pyridazin-3-yl]ethyl}benzamide] | 0.101 µM | 1.06 µM | – |
| C[C@@H](NC(=O)c1cc(OC[C@@H]2CCOC2)cc(-c2ncc(C3CCC3)s2)c1)c1ccc(C(F)(F)F)nn1 [Example 297, 3-(5-cyclobutyl-1,3-thiazol-2-yl)-5-[(3R)-tetrahydrofuran-3-ylmethoxy]-N-{(1R)-1-[6-(trifluoromethyl)pyridazin-3-yl]ethyl}benzamide] | 0.056 µM | 0.933 µM | – |
| CC(C)c1cnc(-c2cc(OC[C@H]3CCOC3)cc(C(=O)N[C@H](C)c3ccc(C(F)(F)F)nn3)c2)s1 [Example 298, 3-[5-(propan-2-yl)-1,3-thiazol-2-yl]-5-[(3S)-tetrahydrofuran-3-ylmethoxy]-N-{(1R)-1-[6-(trifluoromethyl)pyridazin-3-yl]ethyl}benzamide] | 0.062 µM | 0.781 µM | – |
| CC(C)c1cnc(-c2cc(OC[C@H]3CCCO3)cc(C(=O)N[C@H](C)c3ccc(C(F)(F)F)nn3)c2)s1 [Example 299, 3-[5-(propan-2-yl)-1,3-thiazol-2-yl]-5-[(2R)-tetrahydrofuran-2-ylmethoxy]-N-{(1R)-1-[6-(trifluoromethyl)pyridazin-3-yl]ethyl}benzamide] | 0.037 µM | 0.575 µM | – |
| C[C@@H](NC(=O)c1cc(OC[C@@H]2CCCO2)cc(-c2ncc(C3CCC3)s2)c1)c1ccc(C(F)(F)F)nn1 [Example 300, 3-(5-cyclobutyl-1,3-thiazol-2-yl)-5-[(2S)-tetrahydrofuran-2-ylmethoxy]-N-{(1R)-1-[6-(trifluoromethyl)pyridazin-3-yl]ethyl}benzamide] | 0.078 µM | 0.82 µM | – |
| CC(C)c1cnc(-c2cc(OC[C@@H]3CCCO3)cc(C(=O)N[C@H](C)c3ccc(C(F)(F)F)nn3)c2)s1 [Example 301, 3-[5-(propan-2-yl)-1,3-thiazol-2-yl]-5-[(2S)-tetrahydrofuran-2-ylmethoxy]-N-{(1R)-1-[6-(trifluoromethyl)pyridazin-3-yl]ethyl}benzamide] | 0.091 µM | 1.71 µM | – |
| Cc1cnc(-c2cc(OC3CCN(CC(F)F)CC3)cc(C(=O)N[C@H](C)c3cnc(C(F)(F)F)nc3)c2)s1 [Example 304] | – | 0.027 µM | 0.007 µM |
| Cc1ccc(CNC(=O)c2cc(OC3CCN(CC(F)F)CC3)cc(-c3ncc(C)s3)c2)nn1 [Example 307, 3-{[1-(2,2-difluoroethyl)piperidin-4-yl]oxy}-N-[(6-methylpyridazin-3-yl)methyl]-5-(5-methyl-1,3-thiazol-2-yl)benzamide] | – | 0.103 µM | 0.016 µM |
| Cc1cnc(-c2cc(OC3CCN(CC(F)F)CC3)cc(C(=O)N[C@@H](C)c3cnc(C(F)(F)F)nc3)c2)s1 [Example 308, 3-{[1-(2,2-difluoroethyl)piperidin-4-yl]oxy}-5-(5-methyl-1,3-thiazol-2-yl)-N-{(1S)-1-[2-(trifluoromethyl)pyrimidin-5-yl]ethyl}benzamide] | 0.153 µM | 2.59 µM | – |

Now from value to compound, other results behind:

| IC50 [1, 3] | Structure (SMILES) | IC50 [2] | IC50 [1] |
| --- | --- | --- | --- |
| 0.006 µM | CCc1cnc(-c2cc(OC[C@@H]3CCCO3)cc(C(=O)N[C@H](C)c3ccc(C(F)(F)F)nn3)c2)s1 [Example 302, 3-(5-ethyl-1,3-thiazol-2-yl)-5-[(2S)-tetrahydrofuran-2-ylmethoxy]-N-{(1R)-1-[6-(trifluoromethyl)pyridazin-3-yl]ethyl}benzamide] | 0.145 µM | – |
| 0.009 µM | Cc1ccc([C@@H](C)NC(=O)c2cc(OC3CCN(CC(F)F)CC3)cc(-c3ncc(C)s3)c2)nn1 [Example 305, 3-{[1-(2,2-difluoroethyl)piperidin-4-yl]oxy}-N-[(1R)-1-(6-methylpyridazin-3-yl)ethyl]-5-(5-methyl-1,3-thiazol-2-yl)benzamide] | 0.044 µM | – |
| 0.042 µM | Cc1cnc([C@@H](C)NC(=O)c2cc(OC3CCN(CC(F)F)CC3)cc(-c3ncc(C)s3)c2)cn1 [Example 306, 3-{[1-(2,2-difluoroethyl)piperidin-4-yl]oxy}-N-[(1R)-1-(5-methylpyrazin-2-yl)ethyl]-5-(5-methyl-1,3-thiazol-2-yl)benzamide] | 0.464 µM | – |
| 0.008 µM | Cc1ncc([C@@H](C)NC(=O)c2cc(OC3CCN(CC(F)F)CC3)cc(-c3ncc(C)s3)c2)cn1 [Example 309, 3-{[1-(2,2-difluoroethyl)piperidin-4-yl]oxy}-N-[(1R)-1-(2-methylpyrimidin-5-yl)ethyl]-5-(5-methyl-1,3-thiazol-2-yl)benzamide] | 0.07 µM | – |
| 0.008 µM | Cc1ccc([C@@H](C)NC(=O)c2cc(OC3CCN(CC(F)(F)F)CC3)cc(-c3ncc(C)s3)c2)nn1 [Example 311, N-[(1R)-1-(6-methylpyridazin-3-yl)ethyl]-3-(5-methyl-1,3-thiazol-2-yl)-5-{[1-(2,2,2-trifluoroethyl)piperidin-4-yl]oxy}benzamide] | 0.035 µM | – |
| 0.009 µM | Cc1cnc(-c2cc(OC3CCN(CC(F)(F)F)CC3)cc(C(=O)N[C@H](C)c3ccc(C(F)(F)F)nn3)c2)s1 [Example 312, 3-(5-methyl-1,3-thiazol-2-yl)-5-{[1-(2,2,2-trifluoroethyl)piperidin-4-yl]oxy}-N-{(1R)-1-[6-(trifluoromethyl)pyridazin-3-yl]ethyl}benzamide] | 0.083 µM | – |
